Measured values: patent US9474790B2, “Stable, protracted GLP-1/glucagon receptor co-agonists for medical use” (Novo Nordisk A/S, priority 2013, dated 2016)
Numbered stars: 1 amine (or outer) side, 2 acyl side, 3 side chain; on linkers, the order of the positions; unused ones are H or OH. Bridge positions count the residues as written; N and C are the ends. Square brackets hold non-standard residues; d marks the D form. Side chains are listed from the residue outwards. Peptide text beside a SMILES is read from it. I, II: the chains in the order shown. * marks the point of attachment. C18 diacid = O=C(O)CCCCCCCCCCCCCCCCC(=O)*; γGlu = O=C(O)[C@H](CCC(=O)[*:2])N[*:1]; Ac4c = NC1(C(=O)O)CCC1; AEEA = NCCOCCOCC(=O)O; Aib = CC(C)(N)C(=O)O

What was measured:
[1] = Chemical stability assessment by RP-UPLC; type: physicochemical; settings: 333 μM, 8 mM phosphate buffer pH 7.3, 37° C. vs 5° C.
Experimental: The purpose of this assay was to assess the chemical stability of the glucagon derivatives of the invention in aqueous solutions.
Chemical stability of glucagon derivatives or analogues was investigated by RP-UPLC separation and UV detection. Lyophilized samples were dissolved in a 8 mM Phosphate buffer pH 8.6, followed by adjustment to pH 7.3.using HCl to a final concentration of 333 μM. Samples were incubated for 14 days at 5° C. and 37° C. followed by RP-UPLC analysis. Purity was defined as the area percentage of the main peak in relation to the total area of all integrated peaks in each chromatogram. Purity loss after 14 days at 37° C. was determined as the difference in purity between the samples incubated at 5° C. and 37° C., divided by the purity of the sample after incubation for 14 days at 5° C.
RP-UPLC analysis was performed using a Waters BEH130 2.1 mm×150 mm, 1.7 μm column operated at 50° C. and a flow rate of 0.4 mL/min using a mobile phase system consisting of A: 0.05% TFA in MQ-water B: 0.05% TFA in Acetonitrile. UV-detection was performed at 215 nm. The typical gradient profile used for most of the samples is shown below.
For some individual derivatives or analogues eluting at substantially different retention times compared with the majority of derivatives or analogues, some adjustments to the gradient profile were made to better enable purity assessment comparison across samples. The data confirmed the improved chemical stability of the glucagon derivatives of this invention.

human GLP-1 receptor = molecular target: T1, human GLP-1 receptor (Homo sapiens, UniProt P43220); assay: GLP-1 receptor potency, CRE luciferase reporter gene assay in BHK cells; type: cell-based; settings: BHK cells expressing human GLP-1 receptor, read-out: EC50 GLP-1R
T1 construct: expressed in transfected cells; host or cells: BHK cells (parent BHKTS13), clone FCW467-12A/KZ10-1, with CRE luciferase
T1 sequence (P43220 24-463): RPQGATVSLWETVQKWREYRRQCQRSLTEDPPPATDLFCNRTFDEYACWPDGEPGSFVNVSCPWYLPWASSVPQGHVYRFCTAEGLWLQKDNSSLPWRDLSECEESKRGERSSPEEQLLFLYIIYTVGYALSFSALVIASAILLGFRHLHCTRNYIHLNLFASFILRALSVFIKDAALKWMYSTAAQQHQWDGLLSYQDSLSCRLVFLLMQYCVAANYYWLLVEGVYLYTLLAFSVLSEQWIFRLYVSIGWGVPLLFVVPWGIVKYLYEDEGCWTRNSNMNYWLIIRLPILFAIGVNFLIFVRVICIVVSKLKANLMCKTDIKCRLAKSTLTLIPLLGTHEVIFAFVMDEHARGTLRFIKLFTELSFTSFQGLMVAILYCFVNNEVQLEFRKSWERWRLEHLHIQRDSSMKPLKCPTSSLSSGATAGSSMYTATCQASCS
Method in brief: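 Potency as cAMP-driven firefly luciferase signal after 3 h, 37° C exposure to 10-fold dilutions (final 1×10EE-13–1×10EE-6 M). Stable hGLP-1R/CRE-luc BHK clone, 5×10EE3 cells/well, medium containing 2% ovalbumin and 0.2% Pluronic F-68; EC50 (pM) from variable-slope non-linear regression.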

SMILES | Purity loss; 14 days at 37° C. [1] [%] | EC50 (human GLP-1 receptor) [pM]
CC(C)C[C@H](NC(=O)[C@H](CC(C)C)NC(=O)[C@H](Cc1c[nH]c2ccccc12)NC(=O)[C@H](CCC(N)=O)NC(=O)[C@@H](NC(=O)[C@H](Cc1ccccc1)NC(=O)[C@H](CCC(=O)O)NC(=O)[C@H](CCC(N)=O)NC(=O)[C@H](C)NC(=O)[C@H](C)NC(=O)[C@H](CCCCN)NC(=O)[C@H](CO)NC(=O)[C@H](CC(=O)O)NC(=O)[C@H](CC(C)C)NC(=O)[C@H](Cc1ccc(O)cc1)NC(=O)[C@H](CCCCN)NC(=O)[C@H](CO)NC(=O)[C@H](CC(C)C)NC(=O)[C@H](CC(=O)O)NC(=O)[C@H](CO)NC(=O)[C@@H](NC(=O)[C@H](Cc1ccccc1)NC(=O)[C@@H](NC(=O)CNC(=O)[C@H](CCC(N)=O)NC(=O)C(C)(C)NC(=O)[C@@H](N)Cc1c[nH]cn1)[C@@H](C)O)[C@@H](C)O)C(C)C)C(=O)N[C@@H](CC(N)=O)C(=O)N[C@@H](CCCCNC(=O)CC[C@H](NC(=O)CC[C@H](NC(=O)COCCOCCNC(=O)COCCOCCNC(=O)CC[C@H](NC(=O)CCCCCCCCCCCCCCCCC(=O)O)C(=O)O)C(=O)O)C(=O)O)C(N)=O [Example 8, N^ε29-[(4S)-4-carboxy-4-[[(4S)-4-carboxy-4-[[2-[2-[2-[[2-[2-[2-[[(4S)-4-carboxy-4-(17-carboxyheptadecanoylamino)butanoyl]amino]ethoxy]ethoxy]acetyl]amino]ethoxy]ethoxy]acetyl]amino]butanoyl]amino]butanoyl]-[Aib2,Leu10,Lys17,Ala18,Glu21,Leu27,Lys29]-Glucagon amide] (H-H[Aib]QGTFTSDLSKYLDSKAAQEFVQWLLNK([γGlu-γGlu-AEEA-AEEA-γGlu-C18 diacid])-NH2; N-terminus assumed) | 9 | 
CC(C)C[C@H](NC(=O)[C@H](Cc1ccc(O)cc1)NC(=O)[C@H](CCCCN)NC(=O)[C@H](CO)NC(=O)[C@H](CC(C)C)NC(=O)[C@H](CC(=O)O)NC(=O)[C@H](CO)NC(=O)[C@@H](NC(=O)[C@H](Cc1ccccc1)NC(=O)[C@@H](NC(=O)CNC(=O)[C@H](CCC(N)=O)NC(=O)C1(NC(=O)[C@@H](N)Cc2c[nH]cn2)CCC1)[C@@H](C)O)[C@@H](C)O)C(=O)N[C@@H](CCC(=O)O)C(=O)N[C@@H](CCC(=O)O)C(=O)N[C@@H](CCCNC(=N)N)C(=O)N[C@@H](CCCNC(=N)N)C(=O)N[C@@H](C)C(=O)N[C@@H](CCCNC(=N)N)C(=O)N[C@@H](CC(=O)O)C(=O)N[C@@H](Cc1ccccc1)C(=O)N[C@H](C(=O)N[C@@H](CCC(N)=O)C(=O)N[C@@H](Cc1c[nH]c2ccccc12)C(=O)N[C@@H](CC(C)C)C(=O)N[C@@H](CC(C)C)C(=O)N[C@@H](CCCCNC(=O)CNC(=O)[C@H](CO)NC(=O)[C@H](CCC(=O)O)NC(=O)CNC(=O)[C@H](CO)NC(=O)CC[C@H](NC(=O)CC[C@H](NC(=O)CCCCCCCCCCCCCCCCC(=O)O)C(=O)O)C(=O)O)C(=O)N[C@H](C(N)=O)[C@@H](C)O)C(C)C [Example 16, N^ε28-[2-[[(2S)-2-[[(2S)-4-carboxy-2-[[2-[[(2S)-2-[[(4S)-4-carboxy-4-[[(4S)-4-carboxy-4-(17-carboxyheptadecanoylamino)butanoyl]amino]butanoyl]amino]-3-hydroxypropanoyl]amino]acetyl]amino]butanoyl]amino]-3-hydroxypropanoyl]amino]acetyl]-[Acb2,Leu10,Glu15,Glu16,Arg20,Leu27,Lys28]-Glucagon amide] (I: H-H[Ac4c]QGTFTSDLSKYLEERRARDFVQWLLKT-NH2 / II: {C18 diacid-γGlu-γGlu}-SGESG; amide I:28-II:C; N-terminus assumed) | 3 | 
CC(C)C[C@H](NC(=O)[C@H](Cc1ccc(O)cc1)NC(=O)[C@H](CCCNC(=N)N)NC(=O)[C@H](CO)NC(=O)[C@H](CC(C)C)NC(=O)[C@H](CC(=O)O)NC(=O)[C@H](CO)NC(=O)[C@@H](NC(=O)[C@H](Cc1ccccc1)NC(=O)[C@@H](NC(=O)CNC(=O)[C@H](CCC(N)=O)NC(=O)C1(NC(=O)[C@@H](N)Cc2c[nH]cn2)CCC1)[C@@H](C)O)[C@@H](C)O)C(=O)N[C@@H](CCC(=O)O)C(=O)N[C@@H](CO)C(=O)N[C@@H](CCCNC(=N)N)C(=O)N[C@@H](CCCNC(=N)N)C(=O)N[C@@H](C)C(=O)N[C@@H](CCCNC(=N)N)C(=O)N[C@@H](CCC(=O)O)C(=O)N[C@@H](Cc1ccccc1)C(=O)N[C@H](C(=O)N[C@@H](CCC(N)=O)C(=O)N[C@@H](Cc1c[nH]c2ccccc12)C(=O)N[C@@H](CC(C)C)C(=O)N[C@@H](CC(C)C)C(=O)N[C@@H](CCCCNC(=O)CC[C@H](NC(=O)CC[C@H](NC(=O)COCCOCCNC(=O)COCCOCCNC(=O)CC[C@H](NC(=O)CC[C@H](NC(=O)CCCCCCCCCCCCCCCCC(=O)O)C(=O)O)C(=O)O)C(=O)O)C(=O)O)C(=O)N[C@H](C(N)=O)[C@@H](C)O)C(C)C [Example 59, N^ε28-[(4S)-4-carboxy-4-[[(4S)-4-carboxy-4-[[2-[2-[2-[[2-[2-[2-[[(4S)-4-carboxy-4-[[(4S)-4-carboxy-4-(17-carboxyheptadecanoylamino)butanoyl]amino]butanoyl]amino]ethoxy]ethoxy]acetyl]amino]ethoxy]ethoxy]acetyl]amino]butanoyl]amino]butanoyl]-[Acb2,Leu10,Arg12,Glu15,Arg20,Glu21,Leu27,Lys28]-Glucagon amide] (H-H[Ac4c]QGTFTSDLSRYLESRRAREFVQWLLK([γGlu-γGlu-AEEA-AEEA-γGlu-γGlu-C18 diacid])T-NH2; N-terminus assumed) |  | 4
CC(C)C[C@H](NC(=O)[C@H](Cc1ccc(O)cc1)NC(=O)[C@H](CCCCN)NC(=O)[C@H](CO)NC(=O)[C@H](CC(C)C)NC(=O)[C@H](CC(=O)O)NC(=O)[C@H](CO)NC(=O)[C@@H](NC(=O)[C@H](Cc1ccccc1)NC(=O)[C@@H](NC(=O)CNC(=O)[C@H](CCC(N)=O)NC(=O)C1(NC(=O)[C@@H](N)Cc2c[nH]cn2)CCC1)[C@@H](C)O)[C@@H](C)O)C(=O)N[C@@H](CCC(=O)O)C(=O)N[C@@H](CO)C(=O)N[C@@H](CCCNC(=N)N)C(=O)N[C@@H](CCCNC(=N)N)C(=O)N[C@@H](C)C(=O)N[C@@H](CCCNC(=N)N)C(=O)N[C@@H](CCC(=O)O)C(=O)N[C@@H](Cc1ccccc1)C(=O)N[C@H](C(=O)N[C@@H](CCC(N)=O)C(=O)N[C@@H](Cc1c[nH]c2ccccc12)C(=O)N[C@@H](CC(C)C)C(=O)N[C@@H](CC(C)C)C(=O)N[C@@H](CCCCNC(=O)CC[C@H](NC(=O)CC[C@H](NC(=O)COCCOCCNC(=O)COCCOCCNC(=O)CC[C@H](NC(=O)CC[C@H](NC(=O)CCCCCCCCCCCCCCCCC(=O)O)C(=O)O)C(=O)O)C(=O)O)C(=O)O)C(=O)N[C@H](C(N)=O)[C@@H](C)O)C(C)C [Example 61, N^ε28-[(4S)-4-carboxy-4-[[(4S)-4-carboxy-4-[[2-[2-[2-[[2-[2-[2-[[(4S)-4-carboxy-4-[[(4S)-4-carboxy-4-(17-carboxyheptadecanoylamino)butanoyl]amino]butanoyl]amino]ethoxy]ethoxy]acetyl]amino]ethoxy]ethoxy]acetyl]amino]butanoyl]amino]butanoyl]-[Acb2,Leu10,Glu15,Arg20,Glu21,Leu27,Lys28]-Glucagon amide] (H-H[Ac4c]QGTFTSDLSKYLESRRAREFVQWLLK([γGlu-γGlu-AEEA-AEEA-γGlu-γGlu-C18 diacid])T-NH2; N-terminus assumed) |  | 6
CC(C)C[C@H](NC(=O)[C@H](Cc1ccc(O)cc1)NC(=O)[C@H](CCCNC(=N)N)NC(=O)[C@H](CO)NC(=O)[C@H](CC(C)C)NC(=O)[C@H](CC(=O)O)NC(=O)[C@H](CO)NC(=O)[C@@H](NC(=O)[C@H](Cc1ccccc1)NC(=O)[C@@H](NC(=O)CNC(=O)[C@H](CCC(N)=O)NC(=O)C(C)(C)NC(=O)[C@@H](N)Cc1c[nH]cn1)[C@@H](C)O)[C@@H](C)O)C(=O)N[C@@H](CC(=O)O)C(=O)N[C@@H](C)C(=O)N[C@@H](CCCNC(=N)N)C(=O)N[C@@H](CCCNC(=N)N)C(=O)N[C@@H](C)C(=O)N[C@@H](CCCNC(=N)N)C(=O)N[C@@H](CC(=O)O)C(=O)N[C@@H](Cc1ccccc1)C(=O)N[C@H](C(=O)N[C@@H](CCC(N)=O)C(=O)N[C@@H](Cc1c[nH]c2ccccc12)C(=O)N[C@@H](CC(C)C)C(=O)N[C@@H](CC(C)C)C(=O)N[C@@H](CCCCNC(=O)CC[C@H](NC(=O)CC[C@H](NC(=O)CC[C@H](NC(=O)CCCCCCCCCCCCCCCCC(=O)O)C(=O)O)C(=O)O)C(=O)O)C(=O)N[C@H](C(N)=O)[C@@H](C)O)C(C)C [Example 62, N^ε28-[(4S)-4-carboxy-4-[[(4S)-4-carboxy-4-[[(4S)-4-carboxy-4-(17-carboxyheptadecanoylamino)butanoyl]amino]butanoyl]amino]butanoyl]-[Aib2,Leu10,Arg12,Ala16,Arg20,Leu27,Lys28]-Glucagon amide] (H-H[Aib]QGTFTSDLSRYLDARRARDFVQWLLK([γGlu-γGlu-γGlu-C18 diacid])T-NH2; N-terminus assumed) |  | 8
